# Assays:
# [1] = tested on: vancomycin-sensitive enterococci; assay: mean geometric MIC, vancomycin-sensitive enterococci, broth micro-dilution; type: cell-based, Enterococcus faecium and Enterococcus faecalis; details: Table 3, representative vancomycin-sensitive enterococci
# Protocol: (§1) The antibacterial efficacy of the present teicoplanin derivatives is illustrated by the following tables. The minimal inhibitory concentrations (MICs) were determined using a standard broth micro-dilution assay.
# [2] = tested on: vancomycin-resistant enterococci; assay: mean geometric MIC, vancomycin-resistant enterococci, broth micro-dilution; type: cell-based, Enterococcus faecium and Enterococcus faecalis; details: Table 3, representative vancomycin-resistant enterococci
# Protocol: as §1
# S. aureus S13E = assay: standard broth micro-dilution MIC; type: cell-based; details: Table 2A; strain S13E
# Protocol: as §1
# S. aureus 447 = assay: standard broth micro-dilution MIC; type: cell-based; details: Table 2A; strain 447
# Protocol: as §1
# St. pneumo P1 = assay: standard broth micro-dilution MIC; type: cell-based; details: Table 2C; strain P1
# Protocol: as §1
# St. pyro C203 = assay: standard broth micro-dilution MIC; type: cell-based; details: Table 2C; strain C203
# Protocol: as §1
# S. aureus X778 = assay: standard broth micro-dilution MIC; type: cell-based; details: Table 2A; strain X778
# Protocol: as §1
# E. f. 2041 = assay: standard broth micro-dilution MIC; type: cell-based; details: Table 2B; strain 2041
# Protocol: as §1
# S. aureus X400 = assay: standard broth micro-dilution MIC; type: cell-based; details: Table 2A; strain X400
# Protocol: as §1
# S. h. 105 = assay: standard broth micro-dilution MIC; type: cell-based; details: Table 2B; strain 105
# Protocol: as §1
# S. aureus 491 = assay: standard broth micro-dilution MIC; type: cell-based; details: Table 2A; strain 491
# Protocol: as §1
# S. epi 270 = assay: standard broth micro-dilution MIC; type: cell-based; details: Table 2B; strain 270
# Protocol: as §1
# S. aureus 489 = assay: standard broth micro-dilution MIC; type: cell-based; details: Table 2A; strain 489
# Protocol: as §1
# EC14 = assay: standard broth micro-dilution MIC; type: cell-based; details: Table 2C; strain EC14
# Protocol: as §1
# E. f. 180-1 = assay: standard broth micro-dilution MIC; type: cell-based; details: Table 2B; strain 180-1
# Protocol: as §1
# S. aureus 446 = assay: standard broth micro-dilution MIC; type: cell-based; details: Table 2A; strain 446
# Protocol: as §1
# E. f. 180 = assay: standard broth micro-dilution MIC; type: cell-based; details: Table 2B; strain 180
# Protocol: as §1
# S. h. 415 = assay: standard broth micro-dilution MIC; type: cell-based; details: Table 2B; strain 415
# Protocol: as §1
# M. cat M12 = assay: standard broth micro-dilution MIC; type: cell-based; details: Table 2C; strain M12
# Protocol: as §1
# S. aureus SA1199R = assay: standard broth micro-dilution MIC; type: cell-based; details: Table 2B; strain SA1199R
# Protocol: as §1
# S. aureus SA1199B = assay: standard broth micro-dilution MIC; type: cell-based; details: Table 2B; strain SA1199B
# Protocol: as §1
# E. gall. 245 = assay: standard broth micro-dilution MIC; type: cell-based; details: Table 2C; strain 245
# Protocol: as §1
# E. f. 276 = assay: standard broth micro-dilution MIC; type: cell-based; details: Table 2C; strain 276
# Protocol: as §1
# S. aureus SA1199 = assay: standard broth micro-dilution MIC; type: cell-based; details: Table 2A; strain SA1199
# Protocol: as §1
Compound,Sens. MIC [1],Resist. MIC [2],MIC S. aureus S13E (S. aureus S13E),MIC S. aureus 447 (S. aureus 447),MIC St. pneumo P1 (St. pneumo P1),MIC St. pyro C203 (St. pyro C203),MIC S. aureus X778 (S. aureus X778),MIC E. f. 2041 (E. f. 2041),MIC S. aureus X400 (S. aureus X400),MIC S. h. 105 (S. h. 105),MIC S. aureus 491 (S. aureus 491),MIC S. epi 270 (S. epi 270),MIC S. aureus 489 (S. aureus 489),MIC EC14 (EC14),MIC E. f. 180-1 (E. f. 180-1),MIC S. aureus 446 (S. aureus 446),MIC E. f. 180 (E. f. 180),MIC S. h. 415 (S. h. 415),other results
"CC(=O)NC1C(OC2c3ccc(c(Cl)c3)Oc3cc4cc(c3OC3OC(CO)C(O)C(O)C3NCc3ccc(-c5ccccc5)cc3)Oc3ccc(cc3Cl)CC3NC(=O)C(N)c5ccc(O)c(c5)Oc5cc(O)cc(c5)C(NC3=O)C(=O)NC4C(=O)NC3C(=O)NC2C(=O)NC(C(=O)O)c2cc(O)cc(OC4OC(CO)C(O)C(O)C4O)c2-c2cc3ccc2O)OC(CO)C(O)C1O (stereo not shown) [Example 3, Deacyl Teicoplanin, N^Glu-(4-phenylbenzyl) Derivative]",4.6 µg/mL,> 64 µg/mL,,,,,,,,,,,,,,,,,
CC(=O)NC1C(OC2c3ccc(c(Cl)c3)Oc3cc4cc(c3OC3OC(CO)C(O)C(O)C3NCc3ccc(C=Cc5ccccc5)cc3)Oc3ccc(cc3Cl)CC3NC(=O)C(N)c5ccc(O)c(c5)Oc5cc(O)cc(c5)C(NC3=O)C(=O)NC4C(=O)NC3C(=O)NC2C(=O)NC(C(=O)O)c2cc(O)cc(OC4OC(CO)C(O)C(O)C4O)c2-c2cc3ccc2O)OC(CO)C(O)C1O (stereo not shown) [Example 7],0.76 µg/mL,19.03 µg/mL,0.5 µg/mL,2 µg/mL,≤ .06 µg/mL,0.25 µg/mL,2 µg/mL,0.25 µg/mL,0.5 µg/mL,0.25 µg/mL,1 µg/mL,2 µg/mL,0.25 µg/mL,> 128 µg/mL,1 µg/mL,2 µg/mL,64 µg/mL,32 µg/mL,
CC(=O)NC1C(OC2c3ccc(c(Cl)c3)Oc3cc4cc(c3OC3OC(CO)C(O)C(O)C3NCc3ccc(C=Cc5ccccc5)cc3)Oc3ccc(cc3Cl)CC3NC(=O)C(NCc5ccc(C=Cc6ccccc6)cc5)c5ccc(O)c(c5)Oc5cc(O)cc(c5)C(NC3=O)C(=O)NC4C(=O)NC3C(=O)NC2C(=O)NC(C(=O)O)c2cc(O)cc(OC4OC(CO)C(O)C(O)C4O)c2-c2cc3ccc2O)OC(CO)C(O)C1O (stereo not shown) [Example 8],0.22 µg/mL,0.59 µg/mL,2 µg/mL,1 µg/mL,0.25 µg/mL,0.125 µg/mL,2 µg/mL,0.125 µg/mL,1 µg/mL,> 64 µg/mL,1 µg/mL,1 µg/mL,0.25 µg/mL,> 64 µg/mL,0.125 µg/mL,1 µg/mL,0.25 µg/mL,> 64 µg/mL,MIC M. cat M12 (M. cat M12): 0.25 µg/mL; MIC S. aureus SA1199R (S. aureus SA1199R): 0.125 µg/mL; MIC S. aureus SA1199B (S. aureus SA1199B): 2 µg/mL; MIC E. gall. 245 (E. gall. 245): 0.25 µg/mL; MIC E. f. 276 (E. f. 276): 0.5 µg/mL; MIC S. aureus SA1199 (S. aureus SA1199): 4 µg/mL
CC(=O)NC1C(OC2c3ccc(c(Cl)c3)Oc3cc4cc(c3OC3OC(CO)C(O)C(O)C3NCc3ccc(OC(F)(F)F)cc3)Oc3ccc(cc3Cl)CC3NC(=O)C(NCc5ccc(OC(F)(F)F)cc5)c5ccc(O)c(c5)Oc5cc(O)cc(c5)C(NC3=O)C(=O)NC4C(=O)NC3C(=O)NC2C(=O)NC(C(=O)O)c2cc(O)cc(OC4OC(CO)C(O)C(O)C4O)c2-c2cc3ccc2O)OC(CO)C(O)C1O (stereo not shown) [Example 13],0.25 µg/mL,45 µg/mL,1 µg/mL,1 µg/mL,0.05 µg/mL,≤ .06 µg/mL,1 µg/mL,,0.5 µg/mL,32 µg/mL,0.5 µg/mL,0.5 µg/mL,0.5 µg/mL,> 128 µg/mL,,1 µg/mL,4 µg/mL,8 µg/mL,
CC(=O)NC1C(OC2c3ccc(c(Cl)c3)Oc3cc4cc(c3OC3OC(CO)C(O)C(O)C3NCc3ccc(OC(F)(F)F)cc3)Oc3ccc(cc3Cl)CC3NC(=O)C(N)c5ccc(O)c(c5)Oc5cc(O)cc(c5)C(NC3=O)C(=O)NC4C(=O)NC3C(=O)NC2C(=O)NC(C(=O)O)c2cc(O)cc(OC4OC(CO)C(O)C(O)C4O)c2-c2cc3ccc2O)OC(CO)C(O)C1O (stereo not shown) [Example 14],5.28 µg/mL,> 32 µg/mL,2 µg/mL,8 µg/mL,1 µg/mL,1 µg/mL,4 µg/mL,8 µg/mL,2 µg/mL,1 µg/mL,2 µg/mL,2 µg/mL,2 µg/mL,> 128 µg/mL,8 µg/mL,4 µg/mL,> 128 µg/mL,> 128 µg/mL,
"Deacyl Teicoplanin, Bis(10-undecen-1-yl) Derivative [Example 4]",1.5 µg/mL,1.2 µg/mL,2 µg/mL,8 µg/mL,1 µg/mL,0.5 µg/mL,4 µg/mL,,2 µg/mL,16 µg/mL,4 µg/mL,2 µg/mL,2 µg/mL,> 128 µg/mL,,4 µg/mL,8 µg/mL,16 µg/mL,

# Reference: US5916873A, “Teicoplanin derivatives” (Eli Lilly and Company, priority 1998, dated 1999)
